The record followed here is patent US10976312B2, “Compositions and methods for capture of cellular targets of bioactive agents” (Promega Corporation, priority 2012, dated 2021).

In assay [1] the target is T1, NANOLUC-p38 fusion protein (Homo sapiens, UniProt Q16539).
T1 construct: expressed in transfected cells
Nature of the assay: HALOTAG dimer / HALOLINK plate capture of NANOLUC-p38 from cell lysates (Example 2). The following applies: cells treated with drug, listed as BIRB-chloroalkane. Format: binding. The procedure:
Different amounts of a HALOTAG protein dimer (dimer of SEQ ID NO: 1) were added to cell lysates expressing a NANOLUC-p38 fusion protein (e.g., reporter/cellular-target fusion) which have or have not been treated with BIRB-chloroalkane (e.g., bioactive-agent/capture-ligand conjugate) as shown in Table 1. After 15 minute incubation, the samples were placed into wells of white, 96-well polystyrene plates activated with HALOTAG ligand (HALOLINK plates; Promega Corp.) and further incubated for 45 minutes. The wells were then washed PBS+0.05% Tween-20 (PBST). Then, 50 ul PBS followed by 50 ul of NANOGLO luciferase detection reagent was added to the wells, and luminescence measured.
Table 2 indicates differences in luminescence in samples with and without HALOTAG dimer (e.g., dimer of SEQ ID NO: 1) that indicate specific pull-down of the NANOLUC-p38 fusion protein.

For assay [2], the target named is T2, NANOLUC-p38 alpha fusion protein (Homo sapiens, UniProt Q16539).
T2 construct: expressed in transfected cells; host or cells: HEK293
Kind of assay: Pull-down of NANOLUC-p38 alpha fusion from living HEK293 cells onto HALOTAG protein beads (Example 3). The class given is cell-based. As for the experimental part:
HEK293 cells in wells of a 96-well plate were transfected using PEI with plasmid DNA encoding NANOLUC-p38 fusion. Twenty-four hours post-transfection, cells were incubated with a final concentration of 10 μM PBI-4834 while control cells were not treated with the conjugated drug. Following equilibrium binding of 2 hours, the media was removed, cells were quickly washed with PBS and lysed in a detergent-based lysis buffer for 10 minutes. The cell lysates were then transferred to wells of a 96-well plate which contained 0.5 μl settled paramagnetic HALOTAG protein beads (Promega Corp.) and incubated with shaking for 15-45 minutes. Following binding, the unbound fraction was removed and the HALOTAG protein paramagnetic beads were washed. 150 uM unconjugated BIRB796 was then added and the captured NANOLUC-p38 alpha fusion was specifically released from the beads by competition with the unconjugated BIRB796 for 60 minutes. The released NANOLUC-p38 alpha fusion protein (+PBI-4834) and control (−PBI4834) was detected using NANOGLO luciferase reagent (Promega Corp.).

The target in assay [3] is T2, NANOLUC-p38 alpha fusion protein. Nature of the assay: Pull-down of NANOLUC-p38 alpha fusion from HEK293 cell lysates (Example 5). Format: binding. The following applies: 1 μM conjugate, HEK293 cell lysate. As for the experimental part:
In this example, BIRB-chloroalkane conjugate (PBI-4834) and BIRB chloroalkane conjugate containing a cleavable linker (PBI-5131) were utilized to pull-down a NANOLUC-p38 alpha fusion protein from HEK293 cell lysates. Lysate of cells expressing NANOLUC-p38 fusion were incubated with 1 μM PBI-4834 or PBI-5131 (final concentration) while control lysates were not treated with the conjugated drugs. Following equilibration binding for 2 h, the lysates were transferred to wells of a 96-well plate containing 0.5 μl settled paramagnetic HALOTAG protein beads and incubated with shaking for 45 min. Following binding the unbound fraction was removed, the HALOTAG protein paramagnetic beads were washed 3×, and the captured NANLUC-p38 alpha fusion specifically released from the beads by one of two methods: • 1. 150 μM unconjugated BIRB796 was used to compete for binding with the conjugated BIRB796 on the NANOLUC-p38 alpha fusion for 60 min. • 2. The NANOLUC-p38 alpha fusion was rapidly released through 10 min chemical cleavage of the chloroalkane linker with 10 mM of sodium hydrosulfite (PBI-5131 is a chloroalkane cleavable linker).

Another assay addresses T3, p38 alpha (Homo sapiens, UniProt Q16539).
T3 construct: isolate, e.g., pull-down, endogenous targets from cells; endogenous in cells; host or cells: HEK293
Nature of the assay: Endogenous target pull-down from HEK293 cells, western blot and mass spec (Example 8). The class given is cell-based. The following applies: 10 uM conjugate, listed as BIRB-CA. As for the experimental part:
HEK293 cells were plated in a 6 well plate (2.5×10^5 cells). 48 hours post plating, a final concentration of 10 uM of BIRB-chloroalkane (PBI-4834) was added to 2 wells while control cells were not treated with the drug conjugate. Following equilibrium binding for 2 h, the media was removed, and the cells were quickly washed with PBS and lysed in detergent-based lysis buffer for 10 min. Cell lysates were then transferred to an Eppendorf® tube containing 12.5 ul of settled paramagnetic HALOTAG protein beads and incubated with shaking for 15 min. Following binding, the unbound fraction was removed, the HALOTAG protein paramagnetic beads washed 3×, and the captured targets specifically released from the beads by competition with 150 μM unconjugated BIRB796 for 60 min. The released targets were subjected to mass spec analysis as well as western blot analysis using an anti-p38 alpha antibody (Abcam).
In general terms: A western blot detects proteins with antibodies after separation by electrophoresis.

Values joined by “and” are separate entries in the source; they are usually repeats but may differ in a detail not shown here. Equal entries are not always repeated.

T1 sequence (Q16539 whole entry, the tested form may be a part): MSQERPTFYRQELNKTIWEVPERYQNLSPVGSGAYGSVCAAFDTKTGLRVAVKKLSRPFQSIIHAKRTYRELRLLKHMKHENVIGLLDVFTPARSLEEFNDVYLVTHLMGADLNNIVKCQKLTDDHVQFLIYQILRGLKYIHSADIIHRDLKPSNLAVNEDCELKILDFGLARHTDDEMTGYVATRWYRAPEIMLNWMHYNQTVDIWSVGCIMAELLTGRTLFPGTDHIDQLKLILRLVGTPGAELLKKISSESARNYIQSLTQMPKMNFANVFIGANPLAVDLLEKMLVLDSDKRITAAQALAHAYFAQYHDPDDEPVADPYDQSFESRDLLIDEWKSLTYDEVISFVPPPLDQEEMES
T2 sequence (Q16539 whole entry, the tested form may be a part): as above
T3 sequence (Q16539 whole entry): as the sequence (Q16539 whole entry, the tested form may be a part) above

Regarding `CC(C)(C)c1cc(NC(=O)Nc2ccccc2)n(-c2cccc(CNC(=O)CNC(=O)OCCOCCOCCOC(=O)NCCOCCOCCCCCCCl)c2)n1` [PBI-4834], the “luminescence (captured NANOLUC-p38)” value was 236900 and 397958 and 431167 in assay [1] (2 ug/well HALOTAG dimer); 401205 and 538956 and 596504 in assay [1] (6 ug/well HALOTAG dimer); 395510 and 526903 and 610628 in assay [1] (8 ug/well HALOTAG dimer); 278085 and 275690 and 443682 in assay [1] (No HALOTAG dimer). Also, in assay [2] (10 μM conjugate, HEK293 cells, HALOTAG protein beads), the “expressed fusion specifically captured to the beads” value stood at 1%. For the same compound, the “signal over background of capture” value in assay [2] (within 15 minutes of capture on HALOTAG protein beads) is “high signal over background”. Besides, the “pull-down efficiency of NANOLUC-p38 alpha” value in assay [3] is “significantly higher compared to PBI-5131”. Also, the “pull-down of endogenous p38 alpha” value on p38 alpha is listed as “specific pull down of p38”.
